# Measurements published in patent US11091501B2, “Heterocyclic compounds as RSV inhibitors” (Enanta Pharmaceuticals, Inc., priority 2017, dated 2021).
# Tested on: Human RSV-A (“Long” strain)
# Test: RSV in vitro cytoprotection assay (CPE, ATPlite) in HEp-2 cells
# Type: cell-based
# Conditions: human respiratory syncytial virus, 96 h; HEp-2 cells, 4-day incubation, ATPlite readout; read-out: Human RSV-A (“Long” strain) EC50
# Procedure, shortened: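 HEp-2 cells (8,000/well) given 2-fold serial compound dilutions in duplicate, then infected with sucrose-stabilised RSV-A Long stock. After 4 days, cell viability read by ATPlite luminescence, with a parallel uninfected plate for cytotoxicity. EC50 binned A<0.01 μM, B 0.01-0.05 μM, C>0.05 μM.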
row,Compound,EC50 [nM]
1,Cc1ccc(C(=O)Nc2ccc(C(=O)N3CCc4cc(-c5nc6cccc(Cl)c6[nH]5)sc4-c4ccc(F)cc43)cc2)c(N2CC3(CCOCC3)C2)n1 [Example 148],10 to 50
2,Cc1ccc(C(=O)Nc2ccc(C(=O)N3CCc4cc(C(=O)Nc5c(F)cccc5F)oc4-c4ccccc43)cc2)c(N2CC3(CCOCC3)C2)n1 [Example 254],< 10
3,Cc1cnc(N2CC3(CCOCC3)C2)c(C(=O)Nc2ccc(C(=O)N3CCc4c(sc(-c5nc6ccc(F)cc6[nH]5)c4F)-c4ccccc43)cc2)c1 [Example 207],< 10
4,Cc1cnc(N2CC3(CCOCC3)C2)c(C(=O)Nc2ccc(C(=O)N3CCc4cc(NC(=O)c5ccccc5F)sc4-c4ccccc43)cc2)c1 [Example 285],< 10
5,Cc1cnc(N2CC3(CCOCC3)C2)c(C(=O)Nc2ccc(C(=O)N3CCc4c(sc(C(=O)Nc5cccc(C)n5)c4F)-c4ccccc43)cc2)c1 [Example 229],10 to 50
6,Cc1cccc(F)c1NC(=O)c1cc2c(s1)-c1ccc(F)cc1N(C(=O)c1ccc(NC(=O)c3cc(F)cnc3N3CC4(CCOCC4)C3)cc1)CC2 [Example 36],< 10
7,Cc1cnc(N2CC3(CCOCC3)C2)c(C(=O)Nc2ccc(C(=O)N3CCc4c(sc(NC(=O)c5c(F)cncc5F)c4F)-c4ccccc43)cc2)c1 [Example 306],< 10
8,Cc1cnc(N2CC3(CCOCC3)C2)c(C(=O)Nc2ccc(C(=O)N3CCc4c(sc(C(=O)Nc5ccc(F)cc5)c4F)-c4ccccc43)cc2)c1 [Example 217],< 10
9,Cc1ccc(C(=O)Nc2ccc(C(=O)N3CCc4c(sc(NC(=O)c5ccccc5F)c4F)-c4ccccc43)cc2)c(N2CC3(CCOCC3)C2)n1 [Example 311],10 to 50
10,Cc1cnc(N2CC3(CCOCC3)C2)c(C(=O)Nc2ccc(C(=O)N3CCc4cc(-c5nnc(C)s5)sc4-c4ccc(F)cc43)cc2)c1 [Example 150],< 10
11,O=C(Nc1ccc(C(=O)N2CCc3cc(-c4nc5ccc(F)cc5[nH]4)sc3-c3ccc(F)cc32)cc1)c1cccnc1N1CC2(CCOCC2)C1 [Example 39],10 to 50
12,Cc1cnc(N2CC3(CCOCC3)C2)c(C(=O)Nc2ccc(C(=O)N3CCc4cc(-c5ccn[nH]5)sc4-c4ccc(F)cc43)cc2)c1 [Example 46],10 to 50
13,O=C(Nc1c(F)cccc1F)c1cc2c(s1)-c1c(ccc(F)c1F)N(C(=O)c1ccc(NC(=O)c3cccnc3N3CC4(CCOCC4)C3)cc1)CC2 [Example 69],10 to 50
14,Cc1ccc(C(=O)Nc2ccc(C(=O)N3CCc4cc(C(=O)Nc5c(F)cc(F)cc5F)sc4-c4ccc(F)cc43)cc2)c(N2CC3(CCOCC3)C2)n1 [Example 111],< 10
15,O=C(Nc1ccc(C(=O)N2CCc3cc(-c4nc5ccccc5[nH]4)sc3-c3ccc(Cl)cc32)cc1)c1cccnc1N1CC2(CCOCC2)C1 [Example 82],10 to 50
16,O=C(Nc1c(F)cccc1F)c1nc2c(s1)-c1ccccc1N(C(=O)c1ccc(NC(=O)c3cccnc3N3CC4(CCOCC4)C3)cc1)CC2 [Example 104],< 10
17,O=C(Nc1ccc(C(=O)N2CCc3cc(-c4nc5ccccc5[nH]4)sc3-c3ccc(F)cc32)cc1)c1cc2c(nc1N1CC3(CCOCC3)C1)CCC2 [Example 68],10 to 50
18,Cc1cnc(N2CC3(CCOCC3)C2)c(C(=O)Nc2ccc(C(=O)N3CCc4cc(NC(=O)OCC(F)(F)F)sc4-c4ccccc43)cc2)c1 [Example 295],< 10
19,Cc1cnc(N2CC3(CCOCC3)C2)c(C(=O)Nc2ccc(C(=O)N3CCc4cc(-c5c[nH]c6ccc(Cl)cc56)sc4-c4ccc(F)cc43)cc2)c1 [Example 174],> 50
20,Cc1cnc(N2CC3(CCOCC3)C2)c(C(=O)Nc2ccc(C(=O)N3CCc4cc(NC(=O)OC5CCCC5)sc4-c4ccccc43)cc2)c1 [Example 293],10 to 50
21,Cc1cnc(N2CC3(CCOCC3)C2)c(C(=O)Nc2ccc(C(=O)N3CCc4cc(NC(=O)c5c(F)cccc5F)sc4-c4ccccc43)cc2)c1 [Example 275],< 10
22,Cc1cc(C(=O)Nc2ccc(C(=O)N3CCc4cc(C(=O)Nc5c(F)cc(F)cc5Cl)sc4-c4ccc(F)cc43)cc2)c(N2CC3(CCOCC3)C2)nn1 [Example 136],10 to 50
23,Cc1cnc(N2CC3(CCOCC3)C2)c(C(=O)Nc2ccc(C(=O)N3CCc4cc(C(=O)Nc5ncco5)sc4-c4ccc(F)cc43)cc2)c1 [Example 125],10 to 50
24,Cc1cnc(N2CC3(CCOCC3)C2)c(C(=O)Nc2ccc(C(=O)N3CCc4cc(NS(=O)(=O)c5ccccc5F)sc4-c4ccccc43)cc2)c1 [Example 290],> 50
25,O=C(Nc1c(F)cccc1Cl)c1cc2c(s1)-c1ccc(F)cc1N(C(=O)c1ccc(NC(=O)c3cccnc3N3CC4(CCOCC4)C3)cc1)CC2 [Example 20],< 10
26,Cc1cnc(N2CC3(CCOCC3)C2)c(C(=O)Nc2ccc(C(=O)N3CCc4cc(NC(=O)OC5CCCCC5)sc4-c4ccccc43)cc2)c1 [Example 294],10 to 50
27,Cc1ccc(C(=O)Nc2ccc(C(=O)N3CCc4cc(NC(=O)c5ncccc5F)sc4-c4ccccc43)cc2)c(N2CC3(CCOCC3)C2)n1 [Example 278],< 10
28,Cc1cnc(N2CC3(CCOCC3)C2)c(C(=O)Nc2ccc(C(=O)N3CCc4cc(-c5c[nH]nc5C5CC5)sc4-c4ccc(F)cc43)cc2)c1 [Example 170],< 10
29,O=C(Nc1c(F)cccc1F)c1nc2c(o1)-c1ccccc1N(C(=O)c1ccc(NC(=O)c3cccnc3N3CC4(CCOCC4)C3)cc1)CC2 [Example 108],10 to 50
